From patent US20160137639A1, “TRIAZOLE-ISOXAZOLE COMPOUND AND MEDICAL USE THEREOF” (JAPAN TOBACCO INC., priority 2012, published 2016)
Read-outs that look alike come from different tables or passages of the source.

Columns and labels:
mouse RORγ = biological target: T1, mouse RORγ (Mus musculus, UniProt P51450); experiment: Luciferase reporter gene assay of inhibitory effect against RORγ transcriptional activity (GAL4-mRORγ plasmid in CHO cells); type: cell-based
T1 construct: mouse, NM_011281.2 and from Ile251 to Lys516; expressed in transfected cells; host or cells: CHO cells (transient co-transfection with pG5-Luc reporter)
T1 sequence (P51450 251-516): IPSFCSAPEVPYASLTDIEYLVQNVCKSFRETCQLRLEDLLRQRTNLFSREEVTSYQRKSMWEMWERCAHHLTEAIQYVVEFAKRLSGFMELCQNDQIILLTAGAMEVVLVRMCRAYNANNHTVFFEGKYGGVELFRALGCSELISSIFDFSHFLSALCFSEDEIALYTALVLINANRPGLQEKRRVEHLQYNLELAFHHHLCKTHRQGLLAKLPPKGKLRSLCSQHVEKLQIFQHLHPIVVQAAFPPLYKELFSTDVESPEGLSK
Outline: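 Readout is intracellular luciferase after 2-day compound exposure (8 concentrations, 0.1% DMSO) in CHO cells expressing GAL4 fused to mouse RORγ LBD residues Ile251–Lys516 plus pG5-Luc reporter. EC50 fitted from %-of-control; points showing resazurin-detected cytotoxicity dropped.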

human RORγ = biological target: T2, human RORγ (Homo sapiens, UniProt P51449); experiment: Luciferase reporter gene assay of inhibitory effect against RORγ transcriptional activity (GAL4-hRORγ plasmid in CHO cells); type: cell-based
T2 construct: human, NM_005060.3 and from Ser253 to Lys518; expressed in transfected cells; host or cells: CHO cells (transient co-transfection with pG5-Luc reporter)
T2 sequence (P51449 253-518): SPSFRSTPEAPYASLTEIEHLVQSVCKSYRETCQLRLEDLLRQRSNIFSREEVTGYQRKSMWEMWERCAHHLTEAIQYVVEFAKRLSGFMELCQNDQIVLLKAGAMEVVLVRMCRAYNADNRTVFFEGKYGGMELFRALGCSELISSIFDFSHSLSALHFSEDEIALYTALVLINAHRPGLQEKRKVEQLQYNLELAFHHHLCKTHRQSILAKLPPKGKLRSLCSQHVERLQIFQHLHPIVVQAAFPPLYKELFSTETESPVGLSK

| SMILES | EC50 (mouse RORγ; read-out: LUC EC50 (μM) mRORg) [µM] | EC50 (human RORγ; read-out: LUC EC50 (μM) hRORg) [µM] | EC50 (mouse RORγ; read-out: LUC EC50 mRORg) [µM] | EC50 (human RORγ; read-out: LUC EC50 hRORg) [µM] |
| --- | --- | --- | --- | --- |
| Cc1ccc(NC(=O)[C@H]2C[C@@H](O)C[C@@H]2c2nnc([C@H]3C[C@@H](CC(C)C)C3)n2C2CC2)c(C)c1 (racemic) [Example F-431] | < 3 | < 3 | – | – |
| COc1cc(C)c(Cl)cc1CNC(=O)CCc1nnc(CCC(C)C)n1C1CC1 [Example F-204] | > 3 | > 3 | – | – |
| Cc1ccc(NC(=O)[C@@H](CCC(=O)O)Cc2noc([C@H]3C[C@@H](CC(C)C)C3)c2C2CC2)c(C)c1 [Example F-671] | – | – | < 3 | < 3 |
| Cc1ccc(NC(=O)C[C@H](CCC(=O)O)c2nnn([C@H]3C[C@@H](CC(C)(C)C(C)C)C3)c2C2CC2)c(Cl)c1 [Example F-713] | – | – | < 3 | < 3 |
| Cc1ccc(NC(=O)CC(CCCO)c2nnc(CCCC(C)(C)C)n2CC(F)(F)F)c(C)c1 (racemic) [Example F-401] | < 3 | < 3 | – | – |
| CC(=O)N1C[C@H](C(=O)Nc2ccc(C)cc2C)[C@@H](c2nnc(CCCC(C)C)n2C2CC2)C1 [Example F-315] | < 3 | < 3 | – | – |
| Cc1ccc(NC(=O)CCc2nnc(C(O)CCC(C)(C)C)n2C2CC2)c(C)c1 (racemic) [Example F-367] | < 3 | > 3 | – | – |
| Cc1ccc(NC(=O)C[C@H](OCC(F)(F)F)c2nnc(-c3cc(CC(C)C)on3)n2C2CC2)c(C)c1 [Example F-629] | – | – | < 3 | < 3 |
| COc1ccccc1CNC(=O)CCc1nnc(CCC(C)C)n1C1CC1 [Example F-179] | > 3 | > 3 | – | – |
| Cc1ccc(C#N)cc1NC(=O)CCc1nnc(CCC(C)C)n1C1CC1 [Example F-143] | > 3 | > 3 | – | – |
| CC(=O)N1C[C@H](C(=O)Nc2ccc(C)cc2C)[C@@H](c2nnc(-c3cc(CC(C)C)no3)n2C2CC2)C1 [Example F-506] | – | – | < 3 | < 3 |
| Cc1ccc(NC(=O)[C@H]2CN(CC(F)(F)F)C[C@@H]2c2nnc([C@H]3C[C@@H](CC(C)(C)C)C3)n2C2CC2)c(C)c1 [Example F-541] | – | – | < 3 | < 3 |
| CCn1c(CCC(=O)Nc2cccc3ccccc23)nnc1CCc1ccccc1 [Example F-12] | < 3 | < 3 | – | – |
| Cc1ccc(NC(=O)CC(CCC(N)=O)c2nnc(CCCC(C)C)n2C2CC2)c(C)c1 (racemic) [Example F-284] | > 3 | > 3 | – | – |
| CCn1c(CCC(=O)Nc2cccc3ccccc23)nnc1CC1CCCCC1 [Example F-17] | < 3 | > 3 | – | – |
| CC(C)(C)C(F)(F)c1cc(-c2onc([C@H](CCC(=O)O)CC(=O)Nc3ccc(Cl)cc3F)c2C2CC2)no1 [Example E-80] | – | – | < 3 | < 3 |
| COc1cc(C)ccc1CNC(=O)[C@H]1CCN(C(C)=O)[C@@H]1c1nnc(CCCC(C)(C)C)n1C1CC1 [Example F-297] | < 3 | < 3 | – | – |
| Cc1ccc(NC(=O)CCc2nnc(-c3ccc(O)cc3)n2C2CC2)c(C)c1 [Example F-442] | > 3 | > 3 | – | – |
| Cc1ccc(NC(=O)C[C@H](CCC(=O)O)c2noc(-c3cc(CCC(F)(F)F)on3)c2C2CC2)c(Cl)c1 [Example E-50] | < 3 | < 3 | – | – |
| Cc1ccc(NC(=O)CC(Cc2cccc(=O)[nH]2)c2nnc([C@H]3C[C@@H](CC(C)C)C3)n2C2CC2)c(C)c1 (mixture of isomers) [Example F-505] | – | – | > 3 | < 3 |
| CC(=O)NCC(CC(=O)Nc1ccc(C)cc1C)c1nnc(CCCC(C)C)n1C1CC1 (racemic) [Example F-277] | < 3 | > 3 | – | – |
| Cc1ccc(NC(=O)CC(Cc2ccccn2)c2nnc([C@H]3C[C@@H](CC(C)C)C3)n2C2CC2)c(C)c1 (mixture of isomers) [Example F-422] | < 3 | < 3 | – | – |
| Cc1ccc(NC(=O)C[C@H](OCC(C)C)c2nnc([C@H]3C[C@@H](CC(C)C)C3)n2C2CC2)c(C)c1 [Example F-582] | – | – | < 3 | < 3 |
| Cc1ccc(NC(=O)C[C@@H](CCO)c2nnc(CCCC(C)(C)C)n2C2CC2)c(C)c1 [Example F-326] | > 3 | > 3 | – | – |
| CC(=O)N1CCCC(CCc2nnc(CCC(=O)Nc3cccc(Cl)c3C)n2C2CC2)C1 (racemic) [Example F-190] | > 3 | > 3 | – | – |
